This experiment concerns A549. Put plainly: Cytotoxicity against human A549 cells. The class given is functional, cell-based.

Each structure is given as a SMILES string.

Drawing on ChEMBL document CHEMBL1141271, “Laurendecumallenes A-B and laurendecumenynes A-B, halogenated nonterpenoid C(15)-acetogenins from the marine red alga Laurencia decumbens” (J Nat Prod, 2007), this text covers IC50 for five molecules.

Molecule `C#C/C=C\C[C@@H]1O[C@@H]2C[C@H](Br)[C@H](CC)O[C@@H]2C[C@@H]1Br` registered an IC50 greater than 10 µg/mL.

For `C#C/C=C\C[C@H]1O[C@@H]2C[C@H](Br)[C@@H](CC)O[C@H]1C[C@H]2OO` [LAURENDECUMENYNE A], the IC50 was greater than 10 µg/mL.

Turning to `CC[C@@H](Br)[C@H]1C[C@H](O)[C@H](O)C[C@H]2O[C@H](C=C=CBr)C[C@H]2O1` [LAURENDECUMALLENE B], the IC50 was greater than 10 µg/mL.

Molecule `C#C/C=C\C[C@@H]1O[C@@H]2C[C@H](Br)[C@H](CC)O[C@@H]2C[C@@H]1Cl` [LAURENDECUMENYNE B] came in with an IC50 greater than 10 µg/mL.

`CC[C@H]1O[C@@H]2C[C@@H](C=C=CBr)O[C@@H]2C[C@@H](O)[C@H](O)C[C@@H]1Br` [LAURENDECUMALLENE A]: the IC50 was greater than 10 µg/mL.
